The results in this text go back to article PMC6616073 (Frontiers in Pharmacology, 2019).

pIC50: −log10 of the molar value. Read-outs that look alike come from different tables or passages of the source. Positions of bridges follow the written chain, without caps; N, C: chain ends. Residues, ends and D or L forms follow the SMILES beside them.

For experiment [1], the target named is membrane-bound Torpedo californica nAChR (Tetronarce californica, UniProt P02710+P02712+P02714+P02718). Nature of the experiment: biochemical. In kind it is binding.
For experiment [2], the target named is T1, AChBP from Aplysia californica (Aplysia californica, UniProt Q8WSF8).
T1 construct: made in house
Nature of the experiment: biochemical. In kind it is binding. Particulars: for IC50: 90 min with peptide + 5 min with radioligand, three to four independent experiments, read-out: IC50, μM (95%CI) AChBP.

For experiment [3], the target named is human α7 nAChR (Homo sapiens, UniProt P36544). Nature of the experiment: cell-based. It counts as binding.
In experiment [4] the target is T2, human α9α10 nAChR (Homo sapiens, UniProt Q9GZZ6+Q9UGM1).
T2 construct: expressed in transfected cells; host or cells: Xenopus laevis oocytes injected with cRNA (pT7TS vector)
Nature of the experiment: Two-electrode voltage clamp, human α9α10 nAChR in Xenopus oocytes. In kind it is cell-based. The settings on record: for inhibition of human α9α10 nAChR (result in words): concentrations as high as 50 µM, Xenopus oocytes, data not shown. The method, then: (§1) Oocytes were removed from mature, anesthetized Xenopus laevis by dissecting abdomen and removing necessary amount of ovarium. Stage V–VI Xenopus laevis oocytes were defolliculated with 2 mg/ml collagenase type I (Life Technologies, Camarillo, USA) at room temperature (21–24°C) for 2 h in Ca^2+-free Barth’s solution composed of (in mM) 88 NaCl, 1.1 KCl, 2.4 NaHCO3, 0.8 MgSO4, and 15 HEPES-NaOH at pH 7.6. Oocytes were injected with 9.2 ng of rat or human nAChR α9 and α10 cRNA (in a ratio 1:1) or human α3 and β2 or α4 and β2 cRNA (in a ratio 1:1). Oocytes were incubated at 18°C for 2–4 days before electrophysiological recordings in Barth’s solution composed of (in mM) 88 NaCl, 1.1 KCl, 2.4 NaHCO3, 0.3 Ca(NO3)2, 0.4 CaCl2, 0.8 MgSO4, and 15 HEPES-10NaOH at pH 7.6, supplemented with 40 μg/ml gentamicin and 100 μg/ml ampicillin. Recordings were performed using turbo TEC-03X amplifier (NPI Electronic, Tamm, Germany) and WinWCP recording software (University of Strathclyde, Glasgow, UK). The glass recording electrodes were filled with 3 M KCl and the electrode resistance was 0.1−0.5 MΩ. Membrane potential was clamped at −60 mV. Oocytes were briefly washed with Ba^2+ Ringer’s solution ([Fuchs and Murrow, 1992]) composed of (in mM) 115 NaCl, 2.5 KCl, 1.8 BaCl2, 10 HEPES at pH 7.2, followed by three applications of 10 μM acetylcholine (ACh). Washout with Ba^2+ Ringer’s was done for 5 min between ACh applications. Oocytes were preincubated with various concentrations of Ly6 peptides for 5 min followed by their co-application with ACh. To induce ion current, we used ACh in the concentration range from 10 to 30 μM. The peak current amplitudes of ACh-induced responses were measured before (ACh alone) and after the preincubation of oocytes with peptides. The ratio between these two measurements was used to assess the activity of the tested compounds. In the experiments with α3β2 and α4β2, the above technique was also used, except that oocytes were washed in Barth`s solution. All control experiments were performed on the same day.
Rat α9 and α10 cDNAs was cloned in a pGEMHE vector; human α9, α10, α3, and β2 cDNAs were derived from pT7TS vector. Human α4 was cloned in pSP64 vector. Plasmid pT7TS constructs of human nAChR α9 and α10 subunits and human α3 and β2 subunits were linearized with XbaI restriction enzymes (NEB, Ipswich, USA). pSP64 vector was linearized with BamH1 restriction enzymes (NEB, Ipswich, USA). Rat α9 and α10 plasmids were linearized using NheI (NEB, Ipswich, USA). All plasmid constructs were sequencing before mRNA synthesis. […]
Background: Two-electrode voltage clamp is typically applied to oocytes expressing channels or transporters.

Experiment [5] addresses T3, rat α9α10 nAChR (Rattus norvegicus, UniProt P43144+Q9JLB5).
T3 construct: expressed in transfected cells; host or cells: Xenopus laevis oocytes injected with cRNA (pGEMHE vector)
The experiment is described as follows: Two-electrode voltage clamp, rat α9α10 nAChR in Xenopus oocytes. In kind it is cell-based. Particulars: X. laevis oocytes, 30 μM acetylcholine, 5 min pre-incubation with peptide, −60 mV; n = 3; read-out: IC50, inhibition of acetylcholine-induced ion currents in rat α9α10 nAChR. The method, then: Oocytes were removed from mature, anesthetized Xenopus laevis by dissecting abdomen and removing necessary amount of ovarium. Stage V–VI Xenopus laevis oocytes were defolliculated with 2 mg/ml collagenase type I (Life Technologies, Camarillo, USA) at room temperature (21–24°C) for 2 h in Ca^2+-free Barth’s solution composed of (in mM) 88 NaCl, 1.1 KCl, 2.4 NaHCO3, 0.8 MgSO4, and 15 HEPES-NaOH at pH 7.6. Oocytes were injected with 9.2 ng of rat or human nAChR α9 and α10 cRNA (in a ratio 1:1) or human α3 and β2 or α4 and β2 cRNA (in a ratio 1:1). Oocytes were incubated at 18°C for 2–4 days before electrophysiological recordings in Barth’s solution composed of (in mM) 88 NaCl, 1.1 KCl, 2.4 NaHCO3, 0.3 Ca(NO3)2, 0.4 CaCl2, 0.8 MgSO4, and 15 HEPES-10NaOH at pH 7.6, supplemented with 40 μg/ml gentamicin and 100 μg/ml ampicillin. Recordings were performed using turbo TEC-03X amplifier (NPI Electronic, Tamm, Germany) and WinWCP recording software (University of Strathclyde, Glasgow, UK). The glass recording electrodes were filled with 3 M KCl and the electrode resistance was 0.1−0.5 MΩ. Membrane potential was clamped at −60 mV. […] The peak current amplitudes of ACh-induced responses were measured before (ACh alone) and after the preincubation of oocytes with peptides. […]

Experiment [6] concerns human α3β2 nAChR. Nature of the experiment: Two-electrode voltage clamp, human α3β2 nAChR in Xenopus oocytes. Particulars: X. laevis oocytes; for activity on ion currents in α3β2 nAChR (result in words): 30 μM acetylcholine, 30 µM peptide in text, 50 μM in Figure 4, n = 3 or 5. It counts as cell-based. The method, then:
as §1, with “day. […]” for “day.”

Setting [7] is: […], 90 min with peptide + 5 min with radioligand, 20 mM Tris-HCl pH 8.0, 1 mg/ml BSA, mean (95% CI), three to four independent experiments, read-out: IC50, μM (95%CI) T. californica.

T2 sequence (Q9UGM1 26-479 limits assumed): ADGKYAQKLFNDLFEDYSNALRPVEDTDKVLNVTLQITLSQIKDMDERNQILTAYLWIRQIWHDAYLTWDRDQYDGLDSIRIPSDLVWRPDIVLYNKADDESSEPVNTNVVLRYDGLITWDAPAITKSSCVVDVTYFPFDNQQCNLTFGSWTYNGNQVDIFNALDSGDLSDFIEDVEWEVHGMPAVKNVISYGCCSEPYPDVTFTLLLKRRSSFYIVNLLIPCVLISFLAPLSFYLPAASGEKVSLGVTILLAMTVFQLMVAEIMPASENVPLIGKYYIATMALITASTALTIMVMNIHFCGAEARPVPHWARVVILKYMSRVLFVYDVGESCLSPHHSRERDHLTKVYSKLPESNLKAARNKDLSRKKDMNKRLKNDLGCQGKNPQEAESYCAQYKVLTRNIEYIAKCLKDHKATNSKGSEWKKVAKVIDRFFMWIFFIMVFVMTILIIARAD
T2 sequence (Q9GZZ6 25-450): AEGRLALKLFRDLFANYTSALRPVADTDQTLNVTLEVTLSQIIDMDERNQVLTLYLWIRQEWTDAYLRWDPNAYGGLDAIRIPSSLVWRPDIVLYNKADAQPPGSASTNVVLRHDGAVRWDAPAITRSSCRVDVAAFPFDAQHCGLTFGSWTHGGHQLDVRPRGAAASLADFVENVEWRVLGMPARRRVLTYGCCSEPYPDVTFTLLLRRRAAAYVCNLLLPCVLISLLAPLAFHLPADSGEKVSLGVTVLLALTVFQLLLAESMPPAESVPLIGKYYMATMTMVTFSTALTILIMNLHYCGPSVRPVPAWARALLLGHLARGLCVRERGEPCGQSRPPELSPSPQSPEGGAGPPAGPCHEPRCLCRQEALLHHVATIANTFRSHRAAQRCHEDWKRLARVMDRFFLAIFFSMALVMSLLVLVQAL
T1 sequence (Q8WSF8 entry or part of it): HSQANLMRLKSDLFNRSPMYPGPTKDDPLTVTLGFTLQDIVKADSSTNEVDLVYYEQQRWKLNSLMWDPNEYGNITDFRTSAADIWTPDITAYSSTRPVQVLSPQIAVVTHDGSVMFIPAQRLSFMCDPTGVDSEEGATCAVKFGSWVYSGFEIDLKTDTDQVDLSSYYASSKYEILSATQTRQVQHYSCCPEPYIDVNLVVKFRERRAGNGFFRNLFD
Chain of membrane-bound Torpedo californica nAChR (P02714 18-506): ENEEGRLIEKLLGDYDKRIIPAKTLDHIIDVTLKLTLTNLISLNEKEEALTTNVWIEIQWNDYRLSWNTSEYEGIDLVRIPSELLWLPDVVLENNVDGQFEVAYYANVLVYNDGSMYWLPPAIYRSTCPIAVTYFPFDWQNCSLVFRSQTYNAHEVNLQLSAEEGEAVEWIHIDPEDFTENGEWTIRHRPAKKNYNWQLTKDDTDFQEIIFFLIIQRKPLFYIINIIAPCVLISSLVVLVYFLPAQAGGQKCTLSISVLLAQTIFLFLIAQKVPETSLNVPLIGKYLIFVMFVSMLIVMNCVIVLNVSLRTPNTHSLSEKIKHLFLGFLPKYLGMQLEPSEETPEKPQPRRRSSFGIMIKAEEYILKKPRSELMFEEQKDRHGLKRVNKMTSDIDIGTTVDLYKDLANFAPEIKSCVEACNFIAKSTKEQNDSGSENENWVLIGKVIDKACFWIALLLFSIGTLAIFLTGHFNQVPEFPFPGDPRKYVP
Chain of membrane-bound Torpedo californica nAChR (P02710 25-461): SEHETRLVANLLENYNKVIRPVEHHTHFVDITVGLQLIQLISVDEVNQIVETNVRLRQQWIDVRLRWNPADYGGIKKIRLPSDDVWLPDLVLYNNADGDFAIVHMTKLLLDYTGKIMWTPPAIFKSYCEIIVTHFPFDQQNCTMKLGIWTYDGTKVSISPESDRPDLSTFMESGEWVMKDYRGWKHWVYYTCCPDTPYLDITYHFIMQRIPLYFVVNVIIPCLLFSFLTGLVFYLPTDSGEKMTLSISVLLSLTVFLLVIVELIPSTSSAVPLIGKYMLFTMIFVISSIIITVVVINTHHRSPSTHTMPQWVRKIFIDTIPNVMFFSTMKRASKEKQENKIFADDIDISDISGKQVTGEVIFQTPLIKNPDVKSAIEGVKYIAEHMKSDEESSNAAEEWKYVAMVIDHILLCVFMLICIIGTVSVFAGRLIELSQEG
Chain of membrane-bound Torpedo californica nAChR (P02718 22-522): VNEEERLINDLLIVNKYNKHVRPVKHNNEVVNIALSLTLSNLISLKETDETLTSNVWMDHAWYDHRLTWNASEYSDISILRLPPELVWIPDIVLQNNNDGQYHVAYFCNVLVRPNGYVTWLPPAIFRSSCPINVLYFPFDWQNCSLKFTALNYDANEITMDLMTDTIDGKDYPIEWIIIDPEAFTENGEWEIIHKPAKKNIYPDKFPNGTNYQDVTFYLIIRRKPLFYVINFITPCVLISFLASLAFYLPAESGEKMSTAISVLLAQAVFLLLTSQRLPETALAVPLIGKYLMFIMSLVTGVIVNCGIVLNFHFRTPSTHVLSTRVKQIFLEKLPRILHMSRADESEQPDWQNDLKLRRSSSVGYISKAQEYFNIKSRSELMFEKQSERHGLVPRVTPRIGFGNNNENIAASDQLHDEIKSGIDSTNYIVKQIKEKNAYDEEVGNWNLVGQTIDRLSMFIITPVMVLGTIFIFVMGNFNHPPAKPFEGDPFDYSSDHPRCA
Chain of membrane-bound Torpedo californica nAChR (P02712 25-493): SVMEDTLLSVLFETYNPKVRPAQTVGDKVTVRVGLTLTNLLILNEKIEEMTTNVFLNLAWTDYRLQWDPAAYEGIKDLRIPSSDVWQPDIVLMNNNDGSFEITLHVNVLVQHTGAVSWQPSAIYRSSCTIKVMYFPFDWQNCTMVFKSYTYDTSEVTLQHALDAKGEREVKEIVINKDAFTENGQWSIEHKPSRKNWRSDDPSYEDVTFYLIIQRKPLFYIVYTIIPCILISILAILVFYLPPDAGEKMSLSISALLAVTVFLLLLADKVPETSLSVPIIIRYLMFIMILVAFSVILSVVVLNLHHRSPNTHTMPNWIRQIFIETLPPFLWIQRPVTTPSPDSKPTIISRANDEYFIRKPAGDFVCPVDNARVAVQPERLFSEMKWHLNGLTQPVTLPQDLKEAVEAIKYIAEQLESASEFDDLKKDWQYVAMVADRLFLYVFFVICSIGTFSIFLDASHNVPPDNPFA
Chain of human α7 nAChR (P36544 23-502): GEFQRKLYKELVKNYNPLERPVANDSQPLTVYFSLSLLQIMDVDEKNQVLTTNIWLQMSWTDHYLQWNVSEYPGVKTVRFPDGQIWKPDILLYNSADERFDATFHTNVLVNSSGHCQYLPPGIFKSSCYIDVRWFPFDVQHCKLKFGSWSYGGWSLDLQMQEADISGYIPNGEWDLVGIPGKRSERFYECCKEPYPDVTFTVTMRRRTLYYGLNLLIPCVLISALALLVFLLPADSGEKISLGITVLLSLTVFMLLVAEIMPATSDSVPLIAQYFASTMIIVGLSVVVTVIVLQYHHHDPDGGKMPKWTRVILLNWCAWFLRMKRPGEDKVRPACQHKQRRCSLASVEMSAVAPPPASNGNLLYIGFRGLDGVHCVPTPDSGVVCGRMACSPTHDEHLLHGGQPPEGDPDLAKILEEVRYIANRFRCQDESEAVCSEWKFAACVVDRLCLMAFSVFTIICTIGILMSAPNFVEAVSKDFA
T3 sequence (Q9JLB5 25-447): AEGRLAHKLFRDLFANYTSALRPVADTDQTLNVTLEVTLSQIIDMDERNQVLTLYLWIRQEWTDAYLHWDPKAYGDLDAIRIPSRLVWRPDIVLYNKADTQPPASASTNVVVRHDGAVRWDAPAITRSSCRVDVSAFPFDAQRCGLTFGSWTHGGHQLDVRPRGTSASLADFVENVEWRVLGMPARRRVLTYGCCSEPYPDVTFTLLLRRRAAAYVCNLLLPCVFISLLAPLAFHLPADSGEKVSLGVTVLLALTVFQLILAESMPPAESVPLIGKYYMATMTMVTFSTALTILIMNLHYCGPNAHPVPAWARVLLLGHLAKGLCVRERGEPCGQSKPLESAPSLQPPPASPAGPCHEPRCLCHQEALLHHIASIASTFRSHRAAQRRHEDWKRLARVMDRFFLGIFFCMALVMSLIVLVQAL
T3 sequence (P43144 26-479): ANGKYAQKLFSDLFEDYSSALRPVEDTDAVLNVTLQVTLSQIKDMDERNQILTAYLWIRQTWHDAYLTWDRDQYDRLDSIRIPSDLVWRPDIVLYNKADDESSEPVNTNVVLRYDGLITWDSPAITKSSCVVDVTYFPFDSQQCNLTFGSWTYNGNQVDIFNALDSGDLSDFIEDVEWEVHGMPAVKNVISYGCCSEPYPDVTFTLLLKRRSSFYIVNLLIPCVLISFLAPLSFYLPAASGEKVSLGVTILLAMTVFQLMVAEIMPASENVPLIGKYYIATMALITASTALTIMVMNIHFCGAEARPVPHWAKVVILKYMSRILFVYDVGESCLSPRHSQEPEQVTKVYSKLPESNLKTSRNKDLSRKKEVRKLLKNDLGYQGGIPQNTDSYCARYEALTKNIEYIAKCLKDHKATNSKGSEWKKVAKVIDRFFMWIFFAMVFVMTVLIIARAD

On to `CSCC[C@@H]1NC(=O)[C@H](CCCNC(=N)N)NC(=O)[C@H]([C@@H](C)O)NC(=O)[C@@H]2CCCN2C(=O)[C@H]([C@@H](C)O)NC(=O)[C@H](Cc2ccc(O)cc2)NC(=O)[C@H](Cc2ccc(O)cc2)NC(=O)[C@H]([C@@H](C)O)NC(=O)[C@H](CCCNC(=N)N)NC(=O)[C@H]([C@@H](C)O)NC(=O)[C@@H](N)CSSC[C@@H](C(=O)O)NC1=O` [Lynx1 short (3)] (H-CTRTYYTPTRMC-OH; disulfide 1-12), for which the figures for the IC50 in experiment [1] (setting [7]) and in experiment [2] were 74.1 µM and more than 100 µM, respectively.

On to `CSCC[C@H](NC(=O)[C@H](CCCNC(=N)N)NC(=O)[C@@H](NC(=O)[C@@H]1CCCN1C(=O)[C@@H](NC(=O)[C@H](Cc1ccc(O)cc1)NC(=O)[C@H](Cc1ccc(O)cc1)NC(=O)[C@@H](NC(=O)[C@H](CCCNC(=N)N)NC(=O)[C@@H](NC(=O)[C@@H](N)[C@@H](C)O)[C@@H](C)O)[C@@H](C)O)[C@@H](C)O)[C@@H](C)O)C(=O)N[C@@H](CCCCN)C(=O)N[C@H](C(=O)N[C@@H](CO)C(=O)N[C@@H](CCCCN)C(=O)O)C(C)C` [Lynx1 linear (2)] (H-TTRTYYTPTRMKVSK-OH), for which the concentration for half-maximal inhibition (IC50) in experiment [1] (setting [7]) was 13.2 µM; in experiment [3] ([…], 90 min with peptide + 5 min with radioligand, Tris-HCl pH 8.0, mean (95% CI), three to four independent experiments), more than 180 µM; in experiment [2], more than 100 µM. This molecule showed a pIC50 in experiment [4] of 4.49.

In the case of `CSCC[C@H](NC(=O)[C@H](CCCNC(=N)N)NC(=O)[C@@H](NC(=O)[C@@H]1CCCN1C(=O)[C@@H](NC(=O)[C@H](Cc1ccc(O)cc1)NC(=O)[C@H](Cc1ccc(O)cc1)NC(=O)[C@@H](NC(=O)[C@H](CCCNC(=N)N)NC(=O)[C@@H](NC(=O)[C@@H](N)CS)[C@@H](C)O)[C@@H](C)O)[C@@H](C)O)[C@@H](C)O)C(=O)N[C@@H](CS)C(=O)O` [Lynx1 short linear (4)] (H-CTRTYYTPTRMC-OH), the half-maximal inhibitory concentration (IC50) is 15.6 µM in experiment [1] (setting [7]) and more than 100 µM in experiment [2].

Consider `CSCC[C@@H]1NC(=O)[C@H](CCCNC(=N)N)NC(=O)[C@H]([C@@H](C)O)NC(=O)[C@@H]2CCCN2C(=O)[C@H]([C@@H](C)O)NC(=O)[C@H](Cc2ccc(O)cc2)NC(=O)[C@H](Cc2ccc(O)cc2)NC(=O)[C@H]([C@@H](C)O)NC(=O)[C@H](CCCNC(=N)N)NC(=O)[C@H]([C@@H](C)O)NC(=O)[C@H]([C@@H](C)O)NC(=O)[C@@H](N)CSSC[C@@H](C(=O)O)NC(=O)[C@H](CCCCN)NC(=O)[C@H](CO)NC(=O)[C@H](C(C)C)NC(=O)[C@H](CCCCN)NC1=O` [Lynx1 (1)] (H-CTTRTYYTPTRMKVSKC-OH; disulfide 1-17), for which it took 4.9 µM to reach half-maximal inhibition in experiment [1] (IC50, μM (95%CI) T. californica) (IC50). Besides, the pIC50 in experiment [2] was less than 4.00; in experiment [5], 4.57.

For the molecule `CSCC[C@@H]1NC(=O)[C@H](CCCNC(=N)N)NC(=O)[C@H](CCCNC(=N)N)NC(=O)[C@H](C(C)C)NC(=O)[C@H](C(C)C)NC(=O)[C@H](CCC(=O)O)NC(=O)[C@H](Cc2ccc(O)cc2)NC(=O)[C@@H]2CCCN2C(=O)[C@H](CO)NC(=O)[C@H](CCCNC(=N)N)NC(=O)[C@H](CCC(N)=O)NC(=O)[C@H](Cc2c[nH]cn2)NC(=O)[C@H](CCCNC(=N)N)NC(=O)[C@H](C(C)C)NC(=O)[C@H](CCSC)NC(=O)[C@H](CCCCN)NC(=O)[C@@H](N)CSSC[C@@H](C(=O)O)NC1=O` [SSS (5)] (H-CKMVRHQRSPYEVVRRMC-OH; disulfide 1-18; N-terminus assumed), in experiment [3] (ratio of IC50 values of the radioligand assay), the “fold more active against α7 nAChR than the Lynx1 fragment (1)” value is recorded as 10 fold. Also, the “inhibition of ion currents in human α9α10 nAChR” value in experiment [4] (100 μM peptide, 25 μM acetylcholine, X. laevis oocytes, n = 3) was 50%. In experiment [6], the “activity on ion currents in α3β2 nAChR (result in words)” value was “inactive”.

As for `CC(C)C[C@@H]1NC(=O)[C@H](C(C)C)NC(=O)[C@H](CCCNC(=N)N)NC(=O)[C@H]([C@@H](C)O)NC(=O)[C@H](C)NC(=O)[C@H]([C@@H](C)O)NC(=O)[C@@H](N)CSSC[C@@H](C(=O)O)NC(=O)[C@H]([C@@H](C)O)NC(=O)[C@H](C(C)C)NC(=O)[C@H](CC(C)C)NC(=O)[C@@H]2CCCN2C(=O)[C@H](CC(C)C)NC(=O)[C@H](CC(=O)O)NC(=O)[C@H](CCC(=O)O)NC(=O)[C@H]([C@@H](C)O)NC(=O)[C@H](CC(N)=O)NC(=O)[C@H](CO)NC1=O` [SLURP2 (7)] (H-CTATRVLSNTEDLPLVTC-OH; disulfide 1-18; N-terminus assumed), the “inhibition of human α9α10 nAChR (result in words)” value in experiment [4] was “no inhibition”. For the same molecule, the “activity on ion currents in α3β2 nAChR (result in words)” value in experiment [6] was “inactive”.

Take `CC(C)C[C@@H]1NC(=O)[C@H]([C@@H](C)O)NC(=O)[C@@H](N)CSSC[C@@H](C(=O)O)NC(=O)[C@H]([C@@H](C)O)NC(=O)[C@H](C(C)C)NC(=O)[C@H](C(C)C)NC(=O)[C@@H]2CCCN2C(=O)[C@H](CO)NC(=O)[C@H](CCC(N)=O)NC(=O)[C@H](CC(N)=O)NC(=O)[C@H](Cc2ccccc2)NC(=O)[C@@H]2CCCN2C(=O)[C@H](Cc2ccc(O)cc2)NC(=O)[C@H](CCC(=O)O)NC(=O)[C@H](C)NC(=O)[C@H](CCC(=O)O)NC(=O)[C@H](C(C)C)NC(=O)[C@H]([C@@H](C)O)NC(=O)[C@H](C(C)C)NC1=O` [SLURP1 (6)] (H-CTLVTVEAEYPFNQSPVVTC-OH; disulfide 1-20; N-terminus assumed): the “inhibition of human α9α10 nAChR (result in words)” value in experiment [4] is recorded as “no inhibition”. Also, in experiment [6] (50 μM peptide, 30 μM ACh, mean ± SEM, n = 5), the “normalized ion current in human α3β2 nAChR (current with ACh alone = 1)” value came out at 0.74 ± 0.08.

The term IC50 denotes the midpoint of a concentration-inhibition curve. One may read the pIC50 as the negative decadic logarithm of the IC50, by convention in mol/L.
